Values after ≈ are worked out from the molar mass of the structure shown. Like-named read-outs stand apart in the source and are kept apart here.
Legend:
[1] = Cytotoxicity (CC50) in TZM-bl cells; format: cell-based; conditions: human; TZM-bl cells (Table 3); read-out: CC50
HIV-1SF162 virus strain [2] = assay: Inhibition of viral replication in PBMC infected with HIV-1SF162; format: cell-based
Method: (§1) The virus was titrated according to the modified method of Johnson & Byington. Briefly, the HIV-1 stock solution was subject to four-fold dilution in a 96-well plate (ten gradients) sextuplicate for each gradient, while setting six control-wells. Into each well was added 100 μl (5×10^6/ml) PHA-stimulated PBMC cells and final volume per well was 200 μl. The cells were cultured at 37° C. with 5% CO2. […] On the seventh day, the infected supernatant was collected and lysed with 0.5% Triton X100. The p24 antigen was detected by ELISA and TCID50 of virus was calculated according to Reed & Muench method (50% Tissue culture infection dose).
(§2) The starting concentration was 1 μM, six dilutions were obtained, and each well contained 200 μl mixture. While wells not containing drugs were set as control. […] After homogeneously mixed, the mixture was immediately added to 48-well plate containing diluted drug and each well was added with 200 μl of mixture. MVC was used as positive control. The cells were cultured at 37° C. with 5% CO2 for seven days (drug with the same concentration was added on the third day). The supernatant was collected, lysed and inactivated with 0.5% Triton X-100. The inhibition effect of drug on HIV-1 replication was detected using p24 antigen capture ELISA method.

HIV-1KM018 virus strain = assay: Inhibition of viral replication in PBMC infected with HIV-1KM018; format: cell-based
Method: as §1, §2

HIV-1Ba-L virus strain [3] = assay: Inhibition of viral replication in PBMC infected with HIV-1Ba-L; format: cell-based
Method: The virus was titrated according to the modified method of Johnson & Byington. Briefly, the HIV-1 stock solution was subject to four-fold dilution in a 96-well plate (ten gradients) sextuplicate for each gradient, while setting six control-wells. Into each well was added 100 μl (5×10^6/ml) PHA-stimulated PBMC cells and final volume per well was 200 μl. The cells were cultured at 37° C. with 5% CO2. On the third day, 100 μl of fresh RPMI-1640 complete medium was supplemented. On the seventh day, the infected supernatant was collected and lysed with 0.5% Triton X100. The p24 antigen was detected by ELISA and TCID50 of virus was calculated according to Reed & Muench method (50% Tissue culture infection dose).
The compound to be tested was subject to 5-fold dilution in 48-well plate with RPMI-1640 complete medium (containing 10% FBS). The starting concentration was 1 μM, six dilutions were obtained, and each well contained 200 μl mixture. While wells not containing drugs were set as control. Virus (MOI=0.01) was added to 5×10^6/ml of PBMC cells which have been stimulated by PHA for 72 h. After homogeneously mixed, the mixture was immediately added to 48-well plate containing diluted drug and each well was added with 200 μl of mixture. MVC was used as positive control. The cells were cultured at 37° C. with 5% CO2 for seven days (drug with the same concentration was added on the third day). The supernatant was collected, lysed and inactivated with 0.5% Triton X-100. The inhibition effect of drug on HIV-1 replication was detected using p24 antigen capture ELISA method.

[4] = Toxicity test of compounds on PBMC cells (MTT); format: cell-based; conditions: human, PBMC cells (Table 4)
Method: (§3) The compound to be tested was subject to 5-fold dilution in a 96-well microtiter plate with RPMI-1640 or DMEM complete medium (containing 10% FBS) (Six dilution) triplicate for each dilution and 100 μl for each well. While wells not containing drugs were set as control. Into each well was added 100 μl of 4×10^5/ml PM1, HOS-CD4-CCR5 cells or 100 μl of 5×10^6/ml PHA stimulated PBMC. The cells were cultured at 37° C. with 5% CO2 for three days (PBMC cells were cultured for seven days and 100 μl of fresh RPMI-1640 complete medium was supplemented on the third day). Cytotoxicity was tested with MTT assay. OD values were measured by ELx800 microplate reader. The detection wavelength was 570 nm, and the reference wavelength was 630 nm.

HIV-1Ba-L virus strain [5] = assay: Inhibition of viral replication in HOS-CD4-CCR5 cells infected with HIV-1Ba-L; format: cell-based
Method: (§4) On the day before the test, 1×10^5/ml of HOS-CD4-CCR5 cells were inoculated in 96-well plates with 100 μl for each well. The compound to be tested was subject to 5-fold dilution in 96-well microtiter plate with DMEM complete medium (containing 10% FBS). The starting concentration was 1 μM and six dilutions were obtained. Triplicate wells were set for each dilution and each well contained 100 μl mixture. While wells not containing drugs were set as control. The supernatant was removed and 100 μl of drug was added and incubated for 2 h. Then 100 μl of HIV-1SF162 and HIV-1Ba-L were added to dilute supernatant. The cells were infected for 1 h, free virus was washed out and drug with the same final concentration was added. MVC was used as positive control. The cells were cultured at 37° C. with 5% CO2 for three days. The supernatant was collected, lysed and inactivated with 0.5% Triton X-100. The inhibition effect of drug on HIV-1 replication was detected using p24 antigen capture ELISA method.

HIV-1SF162 virus strain [6] = assay: Inhibition of viral replication in HOS-CD4-CCR5 cells infected with HIV-1SF162; format: cell-based
Method: as §4

[7] = Toxicity test of compounds on HOS-CD4-CCR5 cells (MTT); format: cell-based; conditions: human; HOS-CD4+-CCR5 cells (Table 7)
Method: as §3

CYP2C9 = CYP2C9 (Homo sapiens (Human), UniProt P11712); assay: CYP450 inhibition activity assay (Vivid kit) CYP2C9; format: in vitro ADME; conditions: CYP450 subtype (μM) 2C9 (IC50)
Method: VividR CYP450 Screening Kits can be used to evaluate the effects on CYP450 subtypes (CYP1A2, CYP2D6, CYP2C9, CYP2C19, CYP3A4-T and CYP3A4-M) and the substrate VividR in the kit can be metabolizd to a product which can emit strong fluorescence in an aqueous solution by specific CYP450 enzymes.
The compounds to be tested and positive compound were added to corresponding wells and DMSO was added to control wells.
CYP450 enzyme was added to the compounds to be tested, positive compound and DMSO control wells. The enzyme dilution was used to replace enzyme and added to DMSO wells as test background. The mixture was vibrated and mixed for 1 minute, and then incubated at room temperature for 20 minutes.
NADP^+ regeneration system and the substrate were added to initiate the reaction and incubated at room temperature for 60 minutes.

in vivo = conditions: male, rat
Method: The administration volume was 10 mL/kg and drug was formulated with DMSO/Tween 80/physiological saline (5:5:90, v/v/v). […] 2 h after dosing, the rats ate together.
At above time points, 0.3 ml of venous blood was taken from retrobulbar venous plexus of the rat and loaded into EDTA-2K anticoagulative tube. After centrifuged at 11000 rpm for 5 mm, the plasma was separated and frozen at −20° C. in a refrigerator.
The concentration of each compound in rat plasma was determined by LC/MS/MS.
The pharmacokinetic parameters after administration were calculated by using non-compartment model of WinNonlin 5.3 software (Pharsight Corporation, USA).

HIV-1SF162 virus strain [8] = assay: Inhibition activity on TZM-bl cells infected with HIV-1SF162; conditions: for EC50: Human immunodeficiency virus 1, TZM-bl; for therapeutic index (TI): TZM-bl cells infected with HIV-1SF162; for cytotoxicity in vitro and therapeutic index in words, versus positive control compound: TZM-bl cells infected with HIV-1SF162, conclusion from Table 3
[9] = Human immunodeficiency virus 1, PBMC
[10] = PBMC cells infected with HIV-1KM018
[11] = PBMC cells infected with HIV-1Ba-L
[12] = Human immunodeficiency virus 1, HOS-CD4-CCR5
[13] = PBMC cells infected with HIV-1SF162
[14] = HOS-CD4+-CCR5 cells infected with HIV-1SF162
[15] = Human immunodeficiency virus 1, PBMC cells infected with HIV-1SF162, read-out: EC50
[16] = Human immunodeficiency virus 1, PBMC cells infected with HIV-1KM018, read-out: EC50
[17] = Human immunodeficiency virus 1, PBMC cells infected with HIV-1Ba-L, read-out: EC50
[18] = Human immunodeficiency virus 1, HOS-CD4+-CCR5 cells infected with HIV-1Ba-L, read-out: EC50
[19] = Human immunodeficiency virus 1, HOS-CD4+-CCR5 cells infected with HIV-1SF162, read-out: EC50

Chain of CYP2C9 (P11712 whole entry): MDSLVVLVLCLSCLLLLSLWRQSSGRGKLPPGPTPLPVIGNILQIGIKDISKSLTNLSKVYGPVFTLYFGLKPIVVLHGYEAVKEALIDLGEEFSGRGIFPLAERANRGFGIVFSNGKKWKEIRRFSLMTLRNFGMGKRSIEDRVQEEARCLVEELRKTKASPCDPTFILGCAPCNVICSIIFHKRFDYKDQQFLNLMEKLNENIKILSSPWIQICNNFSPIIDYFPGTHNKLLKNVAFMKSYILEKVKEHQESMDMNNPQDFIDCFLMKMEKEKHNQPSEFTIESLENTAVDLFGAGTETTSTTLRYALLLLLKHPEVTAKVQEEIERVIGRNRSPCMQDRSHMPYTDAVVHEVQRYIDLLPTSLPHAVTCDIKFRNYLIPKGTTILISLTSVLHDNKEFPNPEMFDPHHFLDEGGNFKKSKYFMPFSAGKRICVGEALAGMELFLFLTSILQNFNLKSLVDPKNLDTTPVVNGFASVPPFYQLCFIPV

Row | Structure (SMILES) | EC50 (HIV-1SF162 virus strain [2]; [9]) [µg/mL] | EC50 (HIV-1KM018 virus strain; [9]) [µg/mL] | therapeutic index (TI) (HIV-1KM018 virus strain; [10]) | EC50 (HIV-1Ba-L virus strain [3]; [9]) [µg/mL] | therapeutic index (TI) (HIV-1Ba-L virus strain [3]; [11]) | CC50 at 3 days [7] [µg/mL] | IC50 (CYP2C9) [µM] | bioavailability (in vivo) [%] | AUC(0-t) (in vivo; 10 mg/kg) [ng·h/mL] | AUC(0-inf) (in vivo; po, 20 mg/kg) [ng·h/mL] | AUC(0-t) (in vivo; po, 20 mg/kg) [ng·h/mL] | Cmax (in vivo; po, 20 mg/kg) [ng/mL] | MRT (in vivo; po, 20 mg/kg) [h] | Tmax (in vivo; po, 20 mg/kg) [min] | half-life (in vivo; po, 20 mg/kg) [min] | EC50 (HIV-1SF162 virus strain [8]) [µg/mL] | therapeutic index (TI) (HIV-1SF162 virus strain [8]) | cytotoxicity in vitro and therapeutic index in words, versus positive control compound (HIV-1SF162 virus strain [8]) | CC50 [1] [µg/mL] | half-life (in vivo; iv, 10 mg/kg) [min] | also measured
1 | Cc1ccc([C@H](CCN2C3CCC2CC(n2c(C)nnc2C(C)C)C3)NC(=O)C2CCC(F)(F)CC2)s1 (stereo partly drawn) [Compound 29, 4,4-difluoro-N-[(1S)-3-[exo-3-(3-isopropyl-5-methyl-4H-1,2,4-triazol-4-yl)-8-azabicyclo[3.2.1]octane-8-yl]-1-(5-methylthiophen-2-yl)propyl]cyclohexane-1-carboxamide] | 0.00505 (≈ 0.00946 µM) | 0.103 (≈ 0.193 µM) | 1937.2 | 0.236 (≈ 0.442 µM) | 818.3 | > 200 | > 25 | 40.1 | 2330 | 2790 | 1870 | 580 | 4.79 | 120 | 1970 | 0.012 (≈ 0.0225 µM) | >16666.67 | comparable with the positive control compound | – | – | CC50 at 3 days [1]: > 200 µg/mL; CC50 at 7 days [4]: > 200 µg/mL; therapeutic index (TI) (HIV-1Ba-L virus strain [5]; HOS-CD4+-CCR5 cells infected with HIV-1Ba-L): >9144; EC50 (HIV-1Ba-L virus strain [5]; [12]): 0.0219 µg/mL (≈ 0.041 µM); EC50 (HIV-1SF162 virus strain [6]; [12]): 0.0186 µg/mL (≈ 0.0348 µM); AUC(0-inf) (in vivo; 10 mg/kg): 2330 ng·h/mL; Cmax (in vivo; 10 mg/kg): 1690 ng/mL; MRT (in vivo; 10 mg/kg): 2.29 h; Tmax (in vivo; 10 mg/kg): 15 min; half-life (in vivo; 10 mg/kg): 96 min
2 | Cc1nnc(C(C)C)n1C1CC2CCC(C1)N2CC[C@H](NC(=O)C1CCCCC1)c1cccs1 (stereo partly shown) [Compound 16] | 0.455 (≈ 0.941 µM) | 0.555 (≈ 1.15 µM) | 481.1 | 0.365 (≈ 0.754 µM) | 1301.1 | 343 (≈ 709 µM) | > 25 | 14.8 | 5110 | 1510 | 1510 | 631 | 2.11 | 15 | 69.6 | 0.0118 (≈ 0.0244 µM) | >16963.53 | comparable with the positive control compound | > 200 | 18.6 | therapeutic index (TI) (HIV-1SF162 virus strain [2]; [13]): 586.3; CC50 at 7 days [4]: 267 µg/mL (≈ 552 µM); EC50 (HIV-1Ba-L virus strain [5]; [12]): 0.0105 µg/mL (≈ 0.0216 µM); therapeutic index (TI) (HIV-1SF162 virus strain [6]; [14]): 8042; EC50 (HIV-1SF162 virus strain [6]; [12]): 0.0427 µg/mL (≈ 0.0882 µM); AUC(0-inf) (in vivo; iv, 10 mg/kg): 5110 ng·h/mL; AUC(0-t) (in vivo; iv, 10 mg/kg): 5110 ng·h/mL; Cmax (in vivo; iv, 10 mg/kg): 4320 ng/mL; MRT (in vivo; iv, 10 mg/kg): 0.79 h; Tmax (in vivo; iv, 10 mg/kg): 15 min; bioavailability (in vivo; po, 20 mg/kg): 14.8%
3 | Cc1nnc(C(C)C)n1C1CCN(CC[C@H](NC(=O)C2CCCC2)c2cccs2)CC1 [Compound 17, N-[(1S)-3-[4-(3-isopropyl-5-methyl-4H-1,2,4-triazol-4-yl)-piperidin-1-yl]-1-(thiophen-2-yl)propyl]cyclopentane-1-carboxamide] | – | – | <438.6 | – | 438.6 | 439 (≈ 990 µM) | > 25 | – | – | – | – | – | – | – | 107 | 0.0129 (≈ 0.0292 µM) | >15444.02 | comparable with the positive control compound | > 200 | 133 | EC50 (HIV-1SF162 virus strain [2]; [15]): 0.0413 µg/mL (≈ 0.0931 µM); therapeutic index (TI) (HIV-1SF162 virus strain [2]; [13]): 10621; EC50 (HIV-1KM018 virus strain; [16]): > 1 µg/mL; EC50 (HIV-1Ba-L virus strain [3]; [17]): 0.848 µg/mL (≈ 1.91 µM); CC50 at 7 days ([4]; PHA stimulated PBMC): 439 µg/mL (≈ 989 µM); EC50 (HIV-1Ba-L virus strain [5]; [18]): 0.0155 µg/mL (≈ 0.035 µM); therapeutic index (TI) (HIV-1SF162 virus strain [6]; [14]): 8632; EC50 (HIV-1SF162 virus strain [6]; [19]): 0.0509 µg/mL (≈ 0.115 µM)
4 | Cc1nnc(C(C)C)n1C1CC2CCC(C1)N2CC[C@H](NC(=O)C1CCC(F)(F)CC1)c1cccs1 (stereo partly drawn) [Compound 14, 4,4-difluoro-N-[(1S)-3-[exo-3-(3-isopropyl-5-methyl-4H-1,2,4-triazol-4-yl)-8-azabicyclo[3.2.1]octane-8-yl]-1-(thiophen-2-yl)propyl]cyclohexane-1-carboxamide] | – | – | – | – | – | 370 (≈ 711 µM) | – | 7.85 | 7050 | 1190 | 1110 | 266 | 3.33 | 240 | 127 | 0.00359 (≈ 0.00691 µM) | >55710.31 | better than positive control compound | > 200 | 46.2 | EC50 (HIV-1SF162 virus strain [2]; [15]): 0.00158 µg/mL (≈ 0.00304 µM); EC50 (HIV-1KM018 virus strain; [16]): 0.00377 µg/mL (≈ 0.00725 µM); EC50 (HIV-1Ba-L virus strain [3]; [17]): 0.0197 µg/mL (≈ 0.0379 µM); CC50 at 7 days ([4]; PHA stimulated PBMC): 268 µg/mL (≈ 515 µM); EC50 (HIV-1Ba-L virus strain [5]; [18]): 0.00074 µg/mL (≈ 0.00142 µM); EC50 (HIV-1SF162 virus strain [6]; [19]): 0.0131 µg/mL (≈ 0.0251 µM); AUC(0-inf) (in vivo; iv, 10 mg/kg): 7060 ng·h/mL; AUC(0-t) (in vivo; iv, 10 mg/kg): 7050 ng·h/mL; Cmax (in vivo; iv, 10 mg/kg): 6840 ng/mL; MRT (in vivo; iv, 10 mg/kg): 0.71 h; Tmax (in vivo; iv, 10 mg/kg): 15 min; bioavailability (in vivo; po, 20 mg/kg): 7.85%
